Source: US20090143328A1, “Method of Treating Cancer by Administration of Topical Active Corticosteroids” (priority 2001, published 2009)

Key:
Type in all cases: in vivo, human
[1] = tested on: graft versus host disease (GVHD); experiment: Randomized, double blind, placebo controlled trial of oral BDP: time to treatment failure (GVHD) through study days 50 and 80
Procedure: (§1) A randomized, prospective, double blind, placebo controlled, multi-center pivotal trial was conducted to evaluate beclomethasone dipropionate (BDP) as a treatment of cancer by enhancing the graft versus leukemia effect (GVL) while controlling graft versus host disease (GVHD) following hematopoietic stem cell transplant in blood-borne cancer patients. The trial was divided into two phases, the purpose was to monitor short term effectiveness of BDP to control graft versus host disease in the first phase and the second phase was to assess the effect of the drug treatment on long term survival due to recurrence of hematologic malignancy or other causes of death.
(§2) To minimize the exposure of patients to long term exposure to systemic corticosteroids (prednisone or prednisolone), which are used as the standard of care to prevent or treat symptoms of graft versus host disease in conjunction with other immunosuppressive drugs, patients were treated with an oral formulation of BDP. BDP was formulated as two separate oral dosage forms an immediate release (IR) tablet and an enteric coated (EC) tablet. 129 patients were enrolled and 67 patients were randomized to placebo and 62 to BDP, Patients were at least 10 days post allogeneic hematopoietic cell transplantation, had gastrointestinal symptoms consistent with Grade II GVHD, and had endoscopic evidence of GVHD. The diagnosis of GVHD was confirmed by biopsy of the intestine (esophagus, stomach, small intestine, or colon) or skin. After being diagnosed with GVHD, patients were started on standard prednisone therapy. Patients were administered 2 mg/kg/day or 1 mg/kg/day for 10 days as a starting dose. After 10 days at this initial dose, prednisone was tapered over 7 days, after which the patients were maintained on a maintenance physiologic replacement dose of prednisone of 0.0625 mg/kg/day or 0.125 mg/kg/day. Concurrently, patients received BDP at a dose of 2 mg four times daily, for a total dose of 8 mg, or placebo for a maximum of 50 days.
Patients were monitored at clinic visits for evidence of increase in symptoms of GVHD (primary treatment failure). The primary efficacy endpoint was the time to treatment failure through study day 50. Treatment failure was defined as a worsening or recurrence of GVHD of such degree as to require an increase in immunosuppressive therapy. A subject was defined as a treatment failure if the patient required prednisone or equivalent IV corticosteroids at doses higher than that specified in the protocol, in response to uncontrolled signs or symptoms of GVHD; or required additional immunosuppressant medications other than those permitted by the protocol in response to uncontrolled signs or symptoms of GVHD. The time to treatment failure was calculated as the number of days elapsed between the randomization date and the date on which the subject was first identified as a treatment failure by the investigator.
Secondary efficacy endpoints included: 1) the time to treatment failure through study day 80, 2) the proportion of subjects who experienced treatment failure by study days 10, 30, 50, 60, and 80, and 3) Karnofsky performance status scores.
(§3) The primary analysis of the primary and secondary efficacy endpoints was based on the intent-to-treat principle. The analysis of the primary efficacy endpoint was based on the Kaplan-Meier method and log-rank test stratified by source of allograft. Hypothesis tests of the primary and secondary efficacy endpoints were performed using a two-sided significance level of 0.05. No adjustments were made to the significance level for inferential tests of the secondary efficacy endpoints. All patients who received at least one dose of BDP or placebo were included in the assessment of safety.
The hazard ratio was estimated from a univariate Cox proportional hazards model. Placebo serves as the reference group.

[2] = tested on: graft versus leukemia effect (GVL); experiment: Overall survival 200 days post-transplant in the same trial (Kaplan-Meier, Cox proportional hazards models)
Procedure: as §1, §2
(§4) Safety was primarily assessed based on the following: 1) cumulative systemic corticosteroid exposure, 2) the incidence and degree of HPA axis suppression in patients who had not experienced treatment failure by study day 50, 3) rates of treatment-emergent adverse events, and 4) the overall survival rate 200 days post-transplant.
as §3
Based on a univariate time-dependent Cox proportional hazards model, the risk of mortality during this period was 68% lower following the initiation of treatment with BDP when compared to no treatment (hazard ratio 0.32; 95% CI: 0.12, 0.87; p=0.0252). A multivariate Cox model was used to evaluate the effect of BDP while simultaneously accounting for selected competing causes of mortality after hematopoietic cell transplant. The competing causes of mortality included the subject's age and gender, intensity of the conditioning regimen (myeloablative, non-myeloablative), primary diagnosis, transplant source (bone marrow, peripheral blood stem cells), and degree of HLA match, with greater benefit seen in the patients receiving non-myeloabaltive pre-conditioning.
The hazard ratio for each variable was estimated from a multivariate Cox proportional hazards model.

[3] = Safety assessment in the same trial; conditions: oral BDP 2 mg four times daily for 50 days plus prednisone induction vs placebo
Excerpt: as §4, §3

[4] = Kaplan-Meier estimate, fraction, all randomized subjects

## CCC(=O)OCC(=O)[C@@]1(OC(=O)CC)[C@@H](C)C[C@H]2[C@@H]3CCC4=CC(=O)C=C[C@]4(C)[C@@]3(Cl)[C@@H](O)C[C@@]21C [BDP, beclomethasone dipropionate]
[1]; 50-day study treatment period
  Reduction of risk of treatment failure relative to placebo, 50-day study treatment period: 37%
[1]; 80-day study period
  Increase of median time to treatment failure compared to placebo: more than 28 days
  Reduction of risk of treatment failure relative to placebo, entire 80-day study period: 44%
[1]; [4]
  Treatment failure rate by Study Day 50: 0.31
  Treatment failure rate by Study Day 80: 0.39
[1]; all randomized subjects
  Median time to treatment failure (95% CI), through Study Day 50: Not achieved
  Median time to treatment failure (95% CI), through Study Day 80: Not achieved
[1]; first 10 days, all patients on high-dose prednisone
  Patients who met the treatment failure endpoint during the first 10 days of study treatment: Eight
[1]; intent-to-treat, BDP N = 62, 2 mg four times daily oral, with prednisone induction and taper
  Number with treatment failure, through Study Day 50: 18
[1]; intent-to-treat, BDP N = 62, includes 30-day post-treatment observation period
  Number with treatment failure, through Study Day 80: 22
[1]; prior to the prednisone taper
  Share of the total number of treatment failures that occurred within the first 10 days of randomization: 44%
[1]; study day 50
  Cumulative treatment failure rate by study day 50: 31%
[1]; study day 80
  Cumulative treatment failure rate by study day 80: 39%
[2]; 200 days post transplant
  Relative reduction in mortality at 200 days post transplant: 69%
[2]; 200 days post-transplant
  Deaths with relapse of the underlying malignancy as primary cause, number of patients: 2 patients
  Deaths with relapse of the underlying malignancy as primary cause, share of group: 3%
[2]; 200 days post-transplant, BDP vs no treatment
  Hazard ratio, mortality, univariate time-dependent Cox model: 0.32
[2]; Kaplan-Meier estimate, fraction
  Overall survival rate 200 days post-transplant: 0.91
[2]; safety population
  Coefficient (bi), multivariate proportional hazards model for overall survival 200 days post-transplant: −1.155
[2]; safety population, adjusted for competing causes of mortality
  HR [exp(bi)], duration of overall survival 200 days post-transplant, multivariate Cox model: 0.32
[2]; univariate time-dependent Cox proportional hazards model, 200 days post-transplant
  Lowering of risk of mortality following initiation of BDP compared to no treatment: 68%
[3]
  Clinically significant toxicity: without an increase in clinically significant toxicity
